Measurements taken from US20200010482A1, “INHIBITORS OF BETA SECRETASE” (Janssen Pharmaceutica NV, priority 2017, published 2020).

How the values were obtained:
BACE2 = biological target: T1, BACE2 (Homo sapiens, UniProt Q9Y5Z0); test: BACE2 biochemical FRET based assay; settings: recombinant BACE2 0.4 μg/ml, 10 μM substrate, 450 min, pH 5.0; for IC50: read-out: BIOCHEMICAL FRET BASED ASSAY pIC50 (converted)
T1 construct: recombinant BACE2 protein in a final concentration of 0.4 μg/ml
T1 sequence (Q9Y5Z0 63-518): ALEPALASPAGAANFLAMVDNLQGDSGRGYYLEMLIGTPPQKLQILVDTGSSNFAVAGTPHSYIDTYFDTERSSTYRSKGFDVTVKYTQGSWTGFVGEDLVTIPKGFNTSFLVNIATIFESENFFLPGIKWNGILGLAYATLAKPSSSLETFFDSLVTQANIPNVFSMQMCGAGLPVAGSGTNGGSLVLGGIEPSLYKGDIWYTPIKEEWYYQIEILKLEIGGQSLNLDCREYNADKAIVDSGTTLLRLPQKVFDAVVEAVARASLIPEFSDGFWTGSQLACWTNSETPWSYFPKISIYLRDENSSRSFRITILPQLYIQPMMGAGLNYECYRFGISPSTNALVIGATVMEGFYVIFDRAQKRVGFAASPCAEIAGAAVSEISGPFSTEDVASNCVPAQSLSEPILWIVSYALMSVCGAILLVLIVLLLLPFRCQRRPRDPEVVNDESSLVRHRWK
Description: (§1) This assay is a Fluorescence Resonance Energy Transfer Assay (FRET) based assay. The substrate for this assay contains the ‘Swedish’ Lys-Met/Asn-Leu mutation of the amyloid precursor protein (APP) beta-secretase cleavage site. This substrate also contains two fluorophores: (7-methoxycoumarin-4-yl) acetic acid (Mca) is a fluorescent donor with excitation wavelength at 320 nm and emission at 405 nm and 2,4-Dinitrophenyl (Dnp) is a proprietary quencher acceptor. […] Upon cleavage by the beta-secretase, the fluorophore Mca is separated from the quenching group Dnp, restoring the full fluorescence yield of the donor. The increase in fluorescence is linearly related to the rate of proteolysis.
Briefly in a 384-well format recombinant BACE2 protein in a final concentration of 0.4 μg/ml is incubated for 450 minutes at room temperature with 10 μM substrate in incubation buffer (50 mM Citrate buffer pH 5.0, 0.05% PEG, no DMSO) in the absence or presence of compound. Next the amount of proteolysis is directly measured by fluorescence measurement at T=0 and T=450 (excitation at 320 nm and emission at 405 nm). Results are expressed in RFU (Relative Fluorescence Units), as difference between T450 and TO.
(§2) A best-fit curve is fitted by a minimum sum of squares method to the plot of % Controlmin versus compound concentration. From this an IC50 value (inhibitory concentration causing 50% inhibition of activity) can be obtained. • LC=Median of the low control values=Low control: Reaction without enzyme • HC=Median of the High control values=High Control: Reaction with enzyme
(§3) % Effect=100−[(sample−LC)/(HC−LC)*100]
(§4) % Control=(sample/HC)*100
(§5) % Controlmin=(sample−LC)/(HC−LC)*100

[1] = system: Abeta 1-42 produced and secreted by SKNBE2 cells expressing hAPP695; test: Cellular αLisa assay in SKNBE2 cells, Abeta 1-42; type: cell-based, human; settings: SKNBE2 cells expressing hAPP695, 18 hours incubation; for IC50: Homo sapiens, SKNBE2, 18 h, read-out: CELLULAR αLISA ASSAY IN SKNBE2 CELLS ABETA 42 PIC50 (converted)
Description: In two αLisa assays the levels of Abeta total and Abeta 1-42 produced and secreted into the medium of human neuroblastoma SKNBE2 cells are quantified. The assay is based on the human neuroblastoma SKNBE2 expressing the wild type Amyloid Precursor Protein (hAPP695). The compounds are diluted and added to these cells, incubated for 18 hours and then measurements of Abeta 1-42 and Abeta total are taken. Abeta total and Abeta 1-42 are measured by sandwich αLisa. αLisa is a sandwich assay using biotinylated antibody AbN/25 attached to streptavidin coated beads and antibody Ab4G8 or cAb42/26 conjugated acceptor beads for the detection of Abeta total and Abeta 1-42 respectively. In the presence of Abeta total or Abeta 1-42, the beads come into close proximity. The excitation of the donor beads provokes the release of singlet oxygen molecules that trigger a cascade of energy transfer in the acceptor beads, resulting in light emission. Light emission is measured after 1 hour incubation (excitation at […] and emission at 615 nm).
as §2, with “cells preincubated” for “Reaction”, “compound, without biotinylated Ab in the αLisa” for “enzyme”, “cells preincubated without compound” for “Reaction with enzyme”
as §3, §4, §5

BACE1 = biological target: T2, BACE1 (Homo sapiens, UniProt P56817); test: BACE1 biochemical FRET based assay; settings: recombinant BACE1 0.04 μg/ml, 20 μM substrate, 450 min, pH 5.0; for IC50: read-out: BIOCHEMICAL FRET BASED ASSAY pIC50 (converted)
T2 construct: recombinant BACE1 protein in a final concentration of 0.04 μg/ml
Description: as §1, with “this assay is an APP derived 13 amino acids peptide that contains the” for “this assay contains the”, “cleavage by BACE1, the fluorophore” for “cleavage by the beta-secretase, the fluorophore”
Briefly in a 384-well format recombinant BACE1 protein in a final concentration of 0.04 μg/ml is incubated for 450 minutes at room temperature with 20 μM substrate in incubation buffer (50 mM Citrate buffer pH 5.0, 0.05% PEG) in the presence of compound or DMSO. Next the amount of proteolysis is directly measured by fluorescence measurement (excitation at 320 nm and emission at 405 nm) at different incubation times (0, 30, 60, 90, 120 and 450 min). For every experiment a time curve (every 30 min between 0 min and 120 min) is used to determine the time where we find the lowest basal signal of the high control. The signal at this time (Tx) is used to subtract from the signal at 450 min. Results are expressed in RFU, as difference between T450 and Tx.
as §2, §3, §4, §5

T2 sequence (P56817 46-501): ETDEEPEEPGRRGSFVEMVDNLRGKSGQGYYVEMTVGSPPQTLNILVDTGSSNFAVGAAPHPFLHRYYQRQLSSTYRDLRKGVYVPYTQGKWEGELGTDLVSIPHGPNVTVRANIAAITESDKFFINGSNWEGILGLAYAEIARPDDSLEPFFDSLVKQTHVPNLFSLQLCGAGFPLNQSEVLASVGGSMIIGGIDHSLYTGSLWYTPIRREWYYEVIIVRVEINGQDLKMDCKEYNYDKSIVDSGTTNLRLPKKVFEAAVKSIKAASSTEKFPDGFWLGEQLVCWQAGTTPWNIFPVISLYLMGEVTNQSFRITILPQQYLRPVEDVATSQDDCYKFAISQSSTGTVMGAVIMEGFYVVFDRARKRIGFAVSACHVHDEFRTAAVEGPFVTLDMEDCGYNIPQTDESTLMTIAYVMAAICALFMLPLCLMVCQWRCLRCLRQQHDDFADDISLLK

| SMILES | IC50 (BACE2) [nM] | IC50 [1] [nM] | IC50 (BACE1) [nM] | BIOCHEMICAL FRET BASED ASSAY pIC50 (BACE2) | CELLULAR αLISA ASSAY IN SKNBE2 CELLS ABETA 42 PIC50 [1] | BIOCHEMICAL FRET BASED ASSAY pIC50 (BACE1) |
| --- | --- | --- | --- | --- | --- | --- |
| COc1nccc2c1C[C@@]1(c3cc(OCC4CC4)ccc3F)N=C(N)SC[C@H]1C2 [Compound 184] | > 10000 | 5370 | > 10000 |  |  |  |
| COc1ncc(Br)c2c1C[C@]1(c3cc(O)ccc3F)N=C(N)SC[C@@H]1C2 [Compound 42] | 29.5 | 155 | 27.5 |  |  |  |
| COc1ncc(-c2cnccc2C)c2c1C[C@]1(c3cc(-c4cncnc4)ccc3F)N=C(N)SC[C@@H]1C2 (racemic) [Compound 27] | 3980 | 3.89 | 11.7 |  |  |  |
| CCOc1nccc2c1CC1(c3ccc(F)cc3F)N=C(N)SCC1C2 (racemic) [Compound 4] | 331 | 186 | 166 |  |  |  |
| COc1nccc2c1C[C@@]1(c3cc(-c4cncc(C#N)c4)ccc3F)N=C(N)SC[C@H]1C2 [Compound 186] | > 10000 | > 8910 | > 10000 |  |  |  |
| COc1ncc(-c2cncc(C)c2)c2c1C[C@]1(c3ccc(F)cc3F)N=C(N)SC[C@@H]1C2 [Compound 108] |  | 1.32 | 7.76 |  |  |  |
| COc1ncc(C2=CCOCC2)c2c1C[C@]1(c3ccc(F)cc3F)N=C(N)SC[C@@H]1C2 [Compound 46] |  |  |  | 8.44 | 9.21 | 8.64 |
| COCC(C)NCc1ccc(F)c(C23Cc4c(ccnc4OC)CC2CSC(N)=N3)c1 (racemic) [Compound 13] | 39.8 | 1.45 | 70.8 |  |  |  |
| COc1nccc2c1CC1(c3cc(C#N)ccc3F)N=C(N)SCC1C2 (racemic) [Compound 9] | 219 | 20.9 | 132 |  |  |  |
| COc1ncc(-c2cccnc2)c2c1C[C@]1(c3ccc(F)cc3F)N=C(N)OC[C@@H]1C2 (racemic) [Compound 31] | 178 | 8.91 | 69.2 |  |  |  |
| COCC(=O)Nc1cc(C23Cc4c(ccnc4OC)CC2CSC(N)=N3)c(F)cc1F (single isomer, unassigned) [Compound 199] | 7.08 |  | 16.2 |  | 8.36 |  |
| COc1nccc2c1C[C@@]1(c3cc(-c4cncnc4)ccc3F)N=C(N)SC[C@H]1C2 [Compound 185] | > 10000 | > 8910 | > 10000 |  |  |  |
| COc1nccc2c1C[C@]1(c3cc(-c4cncc(C#N)c4)ccc3F)N=C(N)SC[C@@H]1C2 [Compound 37] | 123 | 17 | 42.7 |  |  |  |
| COc1nccc2c1CC1(c3cc(-c4cncnc4)c(F)cc3F)N=C(N)SCC1C2 (racemic) [Compound 11] | 219 | 2.95 | 21.9 |  |  |  |
| COc1nccc2c1C[C@]1(c3ccc(F)cc3F)N=C(N)OC[C@@H]1C2 (racemic) [Compound 30] | 1150 | 170 | 692 |  |  |  |
| COc1nccc2c1C[C@]1(c3cc(-c4cncnc4)ccc3F)N=C(N)SC[C@@H]1C2 [Compound 38] | 229 | 3.55 | 15.5 |  |  |  |
| COc1ncc(-c2ccncc2C)c2c1CC1(c3ccc(F)cc3F)N=C(N)OCC1C2 (racemic) [Compound 32] | 1120 | 7.24 | 50.1 |  |  |  |
| COc1ccncc1-c1cnc(OC)c2c1C[C@H]1CSC(N)=N[C@@]1(c1ccc(F)cc1F)C2 [Compound 103] | 2570 | 13.8 | 209 |  |  |  |
| COc1nccc2c1CC1(c3cc(Br)c(F)cc3F)N=C(N)SCC1C2 (racemic) [Compound 6] | 219 | 200 | 234 |  |  |  |
| COc1ncc(Br)c2c1CC1(c3cc(Br)c(F)cc3F)N=C(N)SCC1C2 (racemic) [Compound 19] | 282 | 417 | 162 |  |  |  |
| COc1ncc(Br)c2c1C[C@@]1(c3cc(O)ccc3F)N=C(N)SC[C@H]1C2 [Compound 189] | > 10000 | 6920 | > 10000 |  |  |  |
| COc1nccc2c1CC1(c3cc([N+](=O)[O-])c(F)cc3F)N=C(N)SCC1C2 (racemic) [Compound 8] | 537 | 135 | 219 |  |  |  |
| COc1nccc2c1CC1(c3ccc(Cl)cc3F)N=C(N)SCC1C2 (racemic) [Compound 7] | 155 | 70.8 | 145 |  |  |  |
| COCC(=O)Nc1cc(C23Cc4c(ccnc4OC)CC2CSC(N)=N3)c(F)cc1F (single isomer, unassigned) [Compound 198] | 501 |  | 1070 |  | 6.58 |  |
| COc1nccc2c1C[C@]1(c3cc(OCC4CC4)ccc3F)N=C(N)SC[C@@H]1C2 [Compound 136] | 14.8 | 18.6 | 14.8 |  |  |  |
| COc1nccc2c1CC1(c3cc(-c4cncnc4)ccc3F)N=C(N)SCC1C2 (racemic) [Compound 10] | 457 | 8.51 | 35.5 |  |  |  |
| COc1nccc2c1CC1(c3cc(-c4cncc(C#N)c4)ccc3F)N=C(N)SCC1C2 (racemic) [Compound 12] | 251 | 22.4 | 91.2 |  |  |  |
| COc1ncc(-c2cnccc2C)c2c1CC1(c3cc(O)ccc3F)N=C(N)SCC1C2 (racemic) [Compound 26] | 479 | 42.7 | 25.1 |  |  |  |
| COc1nccc2c1CC1(c3cc4c(cc3F)OCC(=O)N4)N=C(N)SCC1C2 (racemic) [Compound 15] | 115 | 17.4 | 30.2 |  |  |  |
